Measured values published in ChEMBL document CHEMBL5620346, “Current scenario of pyrazole hybrids with in vivo therapeutic potential against cancers” (Eur J Med Chem, 2023).

Tests used:
MCF7 [1] = experiment: Cytotoxicity against human MCF7 cells assessed as reduction in cell viability incubated for 48 hrs by MTT assay; format: functional, cell-based; settings: MCF7, 48 h
K562 = experiment: Cytotoxicity against human K562 cells assessed as reduction in cell viability incubated for 48 hrs by MTT assay; format: functional, cell-based; settings: K562, 48 h
HT-29 [2] = experiment: Cytotoxicity against human HT-29 cells assessed as reduction in cell viability incubated for 48 hrs by MTT assay; format: functional, cell-based; settings: HT-29, 48 h
HT-29 [3] = experiment: Antitumor activity against human HT-29 cells xenografted in BALB/c mouse assessed as reduction in tumor growth at 25 mg/kg, ip relative to control; format: functional; design: scale not given: the % may be the effect or the level left
H22 [4] = experiment: Antitumor activity against mouse H22 cells implanted in Kunming mouse assessed as reduction in tumor growth at 10 mg/kg, iv relative to control; format: functional; settings: read-out: TGI
H22 [5] = experiment: Antitumor activity against mouse H22 cells implanted in Kunming mouse assessed as reduction in tumor growth at 20 mg/kg, iv relative to control; format: functional; settings: read-out: TGI
HT-29 [6] = experiment: Antiproliferative activity against human HT-29 cells assessed as reduction in cell viability incubated for 72 hrs by MTT assay; format: functional, cell-based; settings: HT-29, 72 h
HCT-116 [7] = experiment: Antiproliferative activity against human HCT-116 cells assessed as reduction in cell viability incubated for 72 hrs by MTT assay; format: functional, cell-based; settings: HCT-116, 72 h
HGC-27 = experiment: Antiproliferative activity against human HGC-27 cells assessed as reduction in cell viability incubated for 72 hrs by MTT assay; format: functional, cell-based; settings: HGC-27, 72 h
HeLa = experiment: Antiproliferative activity against human HeLa cells assessed as reduction in cell viability incubated for 72 hrs by MTT assay; format: functional, cell-based
HT-29 [8] = experiment: Antitumor activity against human HT-29 cells xenografted in po dosed nude mouse assessed as reduction in tumor growth at 20 mg/kg relative to control; format: functional; settings: read-out: TGI
[9] = Tmax in mouse at 1 mg/kg, sc; format: ADME, organism-based; settings: in vivo
[10] = Cmax in mouse at 1 mg/kg, sc; format: ADME, organism-based; settings: in vivo
[11] = Oral bioavailability in mouse at 1 mg/kg; format: ADME, organism-based; settings: in vivo
[12] = biological target: Ubiquitin carboxyl-terminal hydrolase 8 (Homo sapiens, UniProt P40818); experiment: Inhibition of human USP8 expressed in Escherichia coli using K63-linked di-ubiquitin (ENZO BML-UW0730-0050) as substrate preincubated for 15 mins followed by substrate addition and measured after 20 mins by fluorescence based analysis
Ubiquitin carboxyl-terminal hydrolase 8, sequence (P40818 whole entry): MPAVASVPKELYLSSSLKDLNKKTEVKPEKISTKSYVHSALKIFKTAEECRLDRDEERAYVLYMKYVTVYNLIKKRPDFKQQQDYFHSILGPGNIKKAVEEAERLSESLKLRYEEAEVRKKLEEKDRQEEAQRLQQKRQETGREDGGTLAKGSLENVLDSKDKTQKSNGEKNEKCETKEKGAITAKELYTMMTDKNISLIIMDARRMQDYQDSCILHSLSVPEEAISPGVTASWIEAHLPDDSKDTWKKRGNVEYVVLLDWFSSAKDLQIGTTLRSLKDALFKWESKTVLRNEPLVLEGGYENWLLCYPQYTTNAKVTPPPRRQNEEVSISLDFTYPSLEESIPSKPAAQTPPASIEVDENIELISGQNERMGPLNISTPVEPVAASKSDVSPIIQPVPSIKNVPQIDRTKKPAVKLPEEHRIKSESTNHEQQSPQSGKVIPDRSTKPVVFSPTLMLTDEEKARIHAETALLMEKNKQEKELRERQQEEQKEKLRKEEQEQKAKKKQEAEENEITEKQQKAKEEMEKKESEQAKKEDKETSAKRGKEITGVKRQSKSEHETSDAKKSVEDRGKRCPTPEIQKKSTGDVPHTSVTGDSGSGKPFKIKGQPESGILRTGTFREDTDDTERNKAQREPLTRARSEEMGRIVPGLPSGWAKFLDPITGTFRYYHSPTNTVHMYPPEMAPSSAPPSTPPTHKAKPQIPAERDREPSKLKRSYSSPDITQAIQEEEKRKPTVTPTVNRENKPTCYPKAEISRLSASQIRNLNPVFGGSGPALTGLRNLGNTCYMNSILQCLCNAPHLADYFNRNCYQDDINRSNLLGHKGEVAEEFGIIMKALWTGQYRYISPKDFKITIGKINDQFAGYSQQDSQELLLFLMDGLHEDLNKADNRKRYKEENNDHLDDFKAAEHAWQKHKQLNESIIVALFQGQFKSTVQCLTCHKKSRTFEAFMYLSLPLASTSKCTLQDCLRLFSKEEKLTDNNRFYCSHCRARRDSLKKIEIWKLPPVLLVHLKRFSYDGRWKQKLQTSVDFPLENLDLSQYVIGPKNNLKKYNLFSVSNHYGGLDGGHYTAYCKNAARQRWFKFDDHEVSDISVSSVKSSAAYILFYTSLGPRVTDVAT

MDA-MB-435 = experiment: Antitumor activity against human MDA-MB-435 cells xenografted in Sprague-Dawley rat model assessed as reduction in tumor volume at 50 mg/kg, ip relative to control; format: functional; design: scale not given: the % may be the effect or the level left
HT-29 [13] = experiment: Antiproliferative activity against human HT-29 cells assessed as cell growth inhibition incubated for 72 hrs by MTT assay; format: functional, cell-based; settings: HT-29, 72 h
MCF7 [14] = experiment: Antiproliferative activity against human MCF7 cells assessed as cell growth inhibition incubated for 72 hrs by MTT assay; format: functional, cell-based; settings: MCF7, 72 h
HT-29 [15] = experiment: Antitumor activity against human HT-29 cells xenografted in nude mouse assessed as reduction in tumor growth at 50 mg/kg, po administered for 21 days relative to control; format: functional; settings: HT-29, 504 h, time 21 day, read-out: TGI
HT-29 [16] = experiment: Antitumor activity against human HT-29 cells xenografted in nude mouse assessed as reduction in tumor growth at 50 mg/kg, ip administered for 21 days relative to control; format: functional; settings: HT-29, 504 h, time 21 day, read-out: TGI
KCL-22 = experiment: Antitumor activity against human KCL-22 cells xenografted in mouse assessed as reduction in tumor growth at 3 mg/kg, po relative to control; settings: KCL-22, po, read-out: TGI
[17] = Tmax in mouse at 40 mg/kg, po; format: ADME, organism-based; settings: in vivo
[18] = Half life in mouse at 40 mg/kg, po; format: ADME, organism-based; settings: in vivo
[19] = Oral bioavailability in rat; settings: in vivo
[20] = Oral bioavailability in dog; settings: in vivo
OE19 [21] = experiment: Antitumor activity against human OE19 cells xenografted in NOD/SCID mouse model assessed as tumor growth inhibition at 25 mg/kg, ip administered for 14 days relative to control; format: functional; settings: OE19, 336 h, time 14 day, read-out: TGI
OE19 [22] = experiment: Antitumor activity against human OE19 cells xenografted in NOD/SCID mouse model assessed as tumor growth inhibition at 25 mg/kg, ip administered for 14 days in presence of flavopiridol relative to control; format: functional; design: scale not given: the % may be the effect or the level left; settings: time 14 day
OE19 [23] = experiment: Antitumor activity against human OE19 cells xenografted in NOD/SCID mouse model assessed as tumor growth inhibition at 25 mg/kg, ip administered for 46 days relative to control; format: functional; design: scale not given: the % may be the effect or the level left; settings: time 46 day
NCI-H460 = experiment: Antitumor activity against human NCI-H460 cells xenografted in nude mouse assessed as tumor growth inhibition at 6.25 mg/kg, po administered twice daily for 14 days in presence of 2-deoxyglucose relative to control; format: functional; design: scale not given: the % may be the effect or the level left; settings: time 14 day
HCT-116 [24] = experiment: Antitumor activity against human HCT-116 cells xenografted in BALB/c nude mouse assessed as tumor growth inhibition at 25 mg/kg, po administered once a daily for 13 consecutive days relative to control; format: functional; settings: read-out: TGI
[25] = Cytotoxicity against human HuT 102 cells assessed as reduction in cell growth incubated for 72 hrs by MTT assay; format: functional, cell-based; settings: HuT-102, 72 h
[26] = Cytotoxicity against human OATL4 cells assessed as cell growth inhibition incubated for 72 hrs by MTT assay; format: functional, cell-based; settings: OATL4, 72 h
[27] = Cytotoxicity against human KOB cells assessed as cell growth inhibition incubated for 72 hrs by MTT assay; format: functional, cell-based
[28] = biological target: Heat shock protein HSP 90-alpha (Homo sapiens, UniProt P07900); experiment: Inhibition of human recombinant HSP90alpha expressed in Escherichia coli BL21 (DE3) incubated for 12 hrs by
[29] = biological target: Heat shock protein HSP 90-beta (Homo sapiens, UniProt P08238); experiment: Inhibition of human recombinant HSP90beta expressed in Escherichia coli BL21 (DE3) incubated for 12 hrs
Heat shock protein HSP 90-beta, sequence (P08238 whole entry): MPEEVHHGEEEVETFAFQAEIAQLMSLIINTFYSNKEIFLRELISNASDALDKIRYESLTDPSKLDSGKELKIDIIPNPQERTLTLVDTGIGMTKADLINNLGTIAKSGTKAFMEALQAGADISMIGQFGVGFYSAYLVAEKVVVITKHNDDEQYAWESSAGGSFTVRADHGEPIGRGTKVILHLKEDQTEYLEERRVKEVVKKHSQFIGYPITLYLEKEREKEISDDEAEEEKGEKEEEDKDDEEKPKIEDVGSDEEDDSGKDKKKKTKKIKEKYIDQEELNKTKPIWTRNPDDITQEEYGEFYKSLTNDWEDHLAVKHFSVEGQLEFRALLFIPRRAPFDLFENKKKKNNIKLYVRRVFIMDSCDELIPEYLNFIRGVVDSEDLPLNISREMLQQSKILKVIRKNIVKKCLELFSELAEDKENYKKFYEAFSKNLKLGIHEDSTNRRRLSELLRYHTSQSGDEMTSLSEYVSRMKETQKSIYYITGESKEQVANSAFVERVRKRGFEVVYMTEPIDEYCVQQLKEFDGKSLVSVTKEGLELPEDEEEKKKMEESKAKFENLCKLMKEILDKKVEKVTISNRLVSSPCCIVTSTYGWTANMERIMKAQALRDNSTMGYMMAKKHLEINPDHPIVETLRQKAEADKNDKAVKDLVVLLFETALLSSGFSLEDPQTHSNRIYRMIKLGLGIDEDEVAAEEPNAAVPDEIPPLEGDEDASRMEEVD

[30] = Antitumor activity against human HuT 102 cells xenografted in mouse assessed as reduction in tumor growth at 14 mg/kg, po relative to control; format: functional; settings: read-out: TGI

O=C1NC(=O)/C(=C/c2ccc3cc(OCC(=O)N4N=C(c5ccc(F)cc5)CC4c4ccccc4Cl)ccc3c2)S1 (stereo unspecified)
IC50 (MCF7 [1]): 8200 nM
IC50 (K562): 8200 nM
IC50 (HT-29 [2]): 8200 nM
Activity (HT-29 [3]): 30%

COc1cccc(C2=NN(C(N)=O)C(c3cn(C)c4ccc(Br)cc34)C2)c1 (stereo unspecified)
inhibition in vivo at 10 mg/kg (H22 [4]): 65%
inhibition in vivo at 20 mg/kg (H22 [5]): 76%

COc1cc(/C=C2\CCCN3C(=O)C4C=NN(C)C4N=C23)cc(OC)c1OC (stereo unspecified)
IC50 (HT-29 [6]): 30 nM
IC50 (HCT-116 [7]): 30 nM
IC50 (HGC-27): 30 nM
IC50 (HeLa): 30 nM
inhibition in vivo at 20 mg/kg (HT-29 [8]): 61.7%
Tmax [9]: 1.67 h
Cmax [10]: 68.8 ng/mL
bioavailability [11]: 78.6%

Brc1ccc(-n2nc(-c3cccnc3)cc2-c2ccccc2)cc1
IC50 [12]: 1200 nM
Activity (MDA-MB-435): 40%

O=C1CN(CC(=O)N2N=C(c3ccccc3)CC2c2ccccc2)C(=O)N1 (stereo unspecified)
IC50 (HT-29 [13]): 10 nM
IC50 (MCF7 [14]): 690 nM
inhibition in vivo at 50 mg/kg (HT-29 [15]): 34%
inhibition in vivo at 50 mg/kg (HT-29 [16]): 31%

O=C(Nc1ccc(OC(F)(F)Cl)cc1)c1cnc(N2CC[C@@H](O)C2)c(-c2ccn[nH]2)c1 [ASCIMINIB]
inhibition in vivo at 3 mg/kg (KCL-22): 65%
Tmax [17]: 2.5 h
half-life [18]: 5.5 h

COc1cc(OC)c(F)c(COc2cnc(Nc3cnn(CCO)c3)nc2)c1F [ASP-5878]
bioavailability [19]: 76.1%
bioavailability [20]: 94.2%

C[C@@]1(C(=O)Nc2ccc(F)nc2)CCCN1c1nc(Nc2cc(C3CC3)n[nH]2)c2cccn2n1 [BMS-754807]
inhibition in vivo at 25 mg/kg (OE19 [21]): 52%
Activity (OE19 [22]): 92.2%
Activity (OE19 [23]): 61.8%
Activity (NCI-H460): 69%

O=c1[nH]cc(F)c(=O)[nH]1 [FLUOROURACIL]
inhibition in vivo at 25 mg/kg (HCT-116 [24]): 54.8%

CCc1cc(C(N)=O)ccc1-n1nc(C(C)C)c2c(-n3cnc(-c4cnn(C)c4)c3)ccnc21 [TAS-116]
IC50 [25]: 376 nM
IC50 [26]: 376 nM
IC50 [27]: 376 nM
IC50 [28]: 34.7 nM
IC50 [29]: 21.3 nM
inhibition in vivo at 14 mg/kg [30]: 70%
